14 molecules from ChEMBL document CHEMBL5291721, “A preclinical secondary pharmacology resource illuminates target-adverse drug reaction associations of marketed drugs” (Nat Commun, 2023) can be followed below.

For orientation: AC50 means the concentration giving half of the maximal activity seen. Read a low AC50 as activity at low concentration.

For experiment [1], the target named is T1, Alpha-2A adrenergic receptor (Homo sapiens, UniProt P08913).
T1 sequence (P08913 whole entry): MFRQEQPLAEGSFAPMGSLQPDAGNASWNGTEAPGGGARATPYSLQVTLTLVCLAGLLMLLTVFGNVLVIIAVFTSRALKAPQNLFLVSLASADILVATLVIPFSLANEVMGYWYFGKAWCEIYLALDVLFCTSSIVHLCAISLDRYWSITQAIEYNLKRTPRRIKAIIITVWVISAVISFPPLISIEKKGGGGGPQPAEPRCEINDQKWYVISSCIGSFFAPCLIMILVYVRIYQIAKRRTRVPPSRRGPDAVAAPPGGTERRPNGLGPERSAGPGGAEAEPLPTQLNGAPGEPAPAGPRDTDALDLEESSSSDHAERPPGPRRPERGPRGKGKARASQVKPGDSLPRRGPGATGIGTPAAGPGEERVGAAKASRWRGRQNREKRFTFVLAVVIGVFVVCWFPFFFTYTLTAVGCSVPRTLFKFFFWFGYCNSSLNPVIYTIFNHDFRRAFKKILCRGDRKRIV
In kind it is functional, cell-based.

Experiment [2] concerns the target T2, Cholecystokinin receptor type A (Homo sapiens, UniProt P32238).
T2 sequence (P32238 whole entry): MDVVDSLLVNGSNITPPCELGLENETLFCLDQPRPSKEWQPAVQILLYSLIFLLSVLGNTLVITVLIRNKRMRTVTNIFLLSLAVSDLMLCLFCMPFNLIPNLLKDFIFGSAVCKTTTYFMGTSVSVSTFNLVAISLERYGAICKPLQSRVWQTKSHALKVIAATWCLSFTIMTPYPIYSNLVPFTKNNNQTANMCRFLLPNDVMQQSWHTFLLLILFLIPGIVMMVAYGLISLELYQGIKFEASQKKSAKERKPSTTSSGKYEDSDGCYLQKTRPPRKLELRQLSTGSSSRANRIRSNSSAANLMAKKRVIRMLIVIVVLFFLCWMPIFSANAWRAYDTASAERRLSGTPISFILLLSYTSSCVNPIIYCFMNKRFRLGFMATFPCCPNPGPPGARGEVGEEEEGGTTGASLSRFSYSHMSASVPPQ

Experiment [3] concerns the target T3, Gastrin/cholecystokinin type B receptor (Homo sapiens, UniProt P32239).
T3 sequence (P32239 whole entry): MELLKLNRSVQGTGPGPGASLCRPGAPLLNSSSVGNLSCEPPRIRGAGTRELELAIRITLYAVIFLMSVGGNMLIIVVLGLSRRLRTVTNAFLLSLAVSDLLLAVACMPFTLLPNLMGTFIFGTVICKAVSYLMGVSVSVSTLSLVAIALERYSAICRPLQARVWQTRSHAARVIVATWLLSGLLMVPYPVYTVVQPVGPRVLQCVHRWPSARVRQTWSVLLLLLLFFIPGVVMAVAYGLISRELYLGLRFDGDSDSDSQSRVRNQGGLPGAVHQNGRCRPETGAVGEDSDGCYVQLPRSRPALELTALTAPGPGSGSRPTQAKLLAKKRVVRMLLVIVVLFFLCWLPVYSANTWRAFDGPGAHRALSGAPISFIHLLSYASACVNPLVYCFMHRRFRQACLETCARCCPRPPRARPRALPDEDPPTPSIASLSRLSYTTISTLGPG

Experiment [4] concerns the target 5-hydroxytryptamine receptor 2B (Homo sapiens, UniProt P41595). In kind it is functional, cell-based.
Another experiment concerns the target Motilin receptor (Homo sapiens, UniProt O43193).
The target in experiment [5] is T4, Neuropeptide Y receptor type 1 (Homo sapiens, UniProt P25929).
T4 sequence (P25929 whole entry): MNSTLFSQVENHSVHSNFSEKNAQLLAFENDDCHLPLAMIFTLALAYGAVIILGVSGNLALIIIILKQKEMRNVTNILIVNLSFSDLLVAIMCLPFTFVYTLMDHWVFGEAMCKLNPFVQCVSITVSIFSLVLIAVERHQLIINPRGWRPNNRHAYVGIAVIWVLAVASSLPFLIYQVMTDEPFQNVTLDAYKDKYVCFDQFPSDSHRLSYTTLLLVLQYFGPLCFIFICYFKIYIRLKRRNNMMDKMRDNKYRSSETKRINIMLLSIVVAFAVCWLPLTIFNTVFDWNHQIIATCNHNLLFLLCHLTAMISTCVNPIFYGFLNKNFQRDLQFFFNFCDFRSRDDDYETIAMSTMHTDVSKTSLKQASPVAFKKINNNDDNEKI

In experiment [6] the target is T5, Equilibrative nucleoside transporter 1 (Homo sapiens, UniProt Q99808).
T5 sequence (Q99808 whole entry): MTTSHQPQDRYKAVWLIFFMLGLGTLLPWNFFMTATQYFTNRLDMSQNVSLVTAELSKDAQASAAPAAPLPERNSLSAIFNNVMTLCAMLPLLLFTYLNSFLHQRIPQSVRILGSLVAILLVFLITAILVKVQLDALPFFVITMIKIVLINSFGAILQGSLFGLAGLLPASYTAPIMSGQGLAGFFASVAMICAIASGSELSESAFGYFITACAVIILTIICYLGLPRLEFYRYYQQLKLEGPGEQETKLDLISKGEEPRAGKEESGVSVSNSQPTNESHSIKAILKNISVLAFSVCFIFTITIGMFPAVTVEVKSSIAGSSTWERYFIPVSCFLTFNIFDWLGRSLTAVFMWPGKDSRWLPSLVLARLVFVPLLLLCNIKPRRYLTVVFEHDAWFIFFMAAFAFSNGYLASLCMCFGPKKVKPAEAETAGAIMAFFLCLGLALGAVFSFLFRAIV

Experiment [7] has as its target Sodium-dependent dopamine transporter (Homo sapiens, UniProt Q01959).
Experiment [8] has as its target Delta-type opioid receptor (Homo sapiens, UniProt P41143).
Experiment [9] deals with Kappa-type opioid receptor (Homo sapiens, UniProt P41145).
Experiment [10] concerns the target Beta-2 adrenergic receptor (Homo sapiens, UniProt P07550).
Also: assay procedure not described here.

Sodium-dependent dopamine transporter, sequence (Q01959 whole entry): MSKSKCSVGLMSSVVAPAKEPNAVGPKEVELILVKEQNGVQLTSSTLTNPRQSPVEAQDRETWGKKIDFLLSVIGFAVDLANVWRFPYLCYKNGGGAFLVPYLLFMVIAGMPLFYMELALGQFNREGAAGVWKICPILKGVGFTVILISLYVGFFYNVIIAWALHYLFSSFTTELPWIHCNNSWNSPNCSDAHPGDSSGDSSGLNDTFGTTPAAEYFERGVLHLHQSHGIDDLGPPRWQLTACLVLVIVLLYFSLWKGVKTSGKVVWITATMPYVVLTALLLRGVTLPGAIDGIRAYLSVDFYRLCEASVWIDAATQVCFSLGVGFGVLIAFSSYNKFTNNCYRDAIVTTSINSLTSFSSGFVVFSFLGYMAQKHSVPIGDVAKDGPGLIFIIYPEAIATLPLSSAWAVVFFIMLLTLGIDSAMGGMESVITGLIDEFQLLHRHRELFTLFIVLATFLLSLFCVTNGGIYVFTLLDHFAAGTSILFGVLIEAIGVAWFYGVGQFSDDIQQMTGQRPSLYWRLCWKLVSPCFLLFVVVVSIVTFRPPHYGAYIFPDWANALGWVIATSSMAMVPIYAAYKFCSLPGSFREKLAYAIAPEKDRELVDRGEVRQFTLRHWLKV
Kappa-type opioid receptor, sequence (P41145 whole entry): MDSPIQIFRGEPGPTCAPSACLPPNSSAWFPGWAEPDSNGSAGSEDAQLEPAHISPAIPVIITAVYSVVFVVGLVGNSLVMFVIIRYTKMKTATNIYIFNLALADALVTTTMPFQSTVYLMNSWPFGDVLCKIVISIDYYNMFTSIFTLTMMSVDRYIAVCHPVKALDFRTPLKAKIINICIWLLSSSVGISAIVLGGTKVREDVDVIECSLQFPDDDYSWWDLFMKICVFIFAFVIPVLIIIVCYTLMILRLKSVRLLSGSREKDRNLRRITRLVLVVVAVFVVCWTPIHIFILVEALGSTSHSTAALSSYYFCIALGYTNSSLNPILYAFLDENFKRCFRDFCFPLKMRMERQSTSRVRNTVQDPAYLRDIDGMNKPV
Motilin receptor, sequence (O43193 whole entry): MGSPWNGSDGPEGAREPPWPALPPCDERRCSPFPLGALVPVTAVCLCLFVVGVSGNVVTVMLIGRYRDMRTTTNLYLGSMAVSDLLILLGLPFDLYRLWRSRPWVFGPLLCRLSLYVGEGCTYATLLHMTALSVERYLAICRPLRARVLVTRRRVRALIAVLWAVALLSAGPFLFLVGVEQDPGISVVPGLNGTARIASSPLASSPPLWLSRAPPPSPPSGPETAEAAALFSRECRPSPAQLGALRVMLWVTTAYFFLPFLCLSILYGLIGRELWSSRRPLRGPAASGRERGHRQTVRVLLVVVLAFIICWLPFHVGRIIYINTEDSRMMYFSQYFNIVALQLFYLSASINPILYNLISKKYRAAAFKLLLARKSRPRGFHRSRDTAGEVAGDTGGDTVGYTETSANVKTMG
Beta-2 adrenergic receptor, sequence (P07550 whole entry): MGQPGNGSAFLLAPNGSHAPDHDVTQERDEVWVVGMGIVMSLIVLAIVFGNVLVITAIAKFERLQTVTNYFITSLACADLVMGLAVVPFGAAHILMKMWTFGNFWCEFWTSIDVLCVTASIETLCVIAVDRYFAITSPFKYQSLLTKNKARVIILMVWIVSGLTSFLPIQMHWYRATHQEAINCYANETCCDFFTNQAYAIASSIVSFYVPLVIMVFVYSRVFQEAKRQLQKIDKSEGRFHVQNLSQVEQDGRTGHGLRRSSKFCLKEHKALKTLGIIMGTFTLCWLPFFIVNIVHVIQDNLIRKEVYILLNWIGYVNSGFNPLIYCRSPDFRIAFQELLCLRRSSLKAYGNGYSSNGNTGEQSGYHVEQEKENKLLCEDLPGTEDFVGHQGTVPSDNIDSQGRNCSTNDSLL
Delta-type opioid receptor, sequence (P41143 whole entry): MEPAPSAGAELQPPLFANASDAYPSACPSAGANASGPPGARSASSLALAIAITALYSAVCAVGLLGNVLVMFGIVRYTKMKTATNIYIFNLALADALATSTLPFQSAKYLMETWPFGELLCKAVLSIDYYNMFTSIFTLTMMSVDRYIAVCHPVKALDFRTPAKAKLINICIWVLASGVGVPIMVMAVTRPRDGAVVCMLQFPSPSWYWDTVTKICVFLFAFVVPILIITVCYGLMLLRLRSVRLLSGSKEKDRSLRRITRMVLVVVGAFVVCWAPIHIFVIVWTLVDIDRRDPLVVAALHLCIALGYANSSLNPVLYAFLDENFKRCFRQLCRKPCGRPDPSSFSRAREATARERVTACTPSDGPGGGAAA
5-hydroxytryptamine receptor 2B, sequence (P41595 whole entry): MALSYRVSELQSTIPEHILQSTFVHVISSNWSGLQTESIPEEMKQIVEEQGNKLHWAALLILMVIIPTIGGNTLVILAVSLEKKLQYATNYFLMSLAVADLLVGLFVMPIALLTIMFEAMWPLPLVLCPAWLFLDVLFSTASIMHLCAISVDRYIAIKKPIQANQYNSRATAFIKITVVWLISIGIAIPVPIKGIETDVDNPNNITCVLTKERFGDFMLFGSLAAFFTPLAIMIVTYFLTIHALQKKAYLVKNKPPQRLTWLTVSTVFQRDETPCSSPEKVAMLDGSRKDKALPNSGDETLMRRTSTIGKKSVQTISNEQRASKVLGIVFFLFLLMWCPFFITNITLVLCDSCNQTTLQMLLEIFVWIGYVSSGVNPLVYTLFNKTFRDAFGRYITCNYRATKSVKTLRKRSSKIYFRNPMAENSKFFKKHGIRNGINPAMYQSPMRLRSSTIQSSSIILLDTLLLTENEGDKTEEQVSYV

Turning to `CO/N=C(\C(=O)N[C@@H]1C(=O)N2C(C(=O)O)=CCS[C@H]12)c1csc(N)n1` [CEFTIZOXIME], the AC50 (in [1]; in [2]; in experiment [3]; in [4]; on Motilin receptor; in [5]) was above 30 µM each time. In addition, the concentration at half-maximal activity (AC50) in experiment [6] and in [7] was above 30 µM throughout.

As to `CO/N=C(\C(=O)N[C@@H]1C(=O)N2C(C(=O)O)=C(CSc3nc(=O)c(=O)[nH]n3C)CS[C@H]12)c1csc(N)n1` [CEFTRIAXONE], the AC50 (in experiment [1]; in experiment [2]; in [3]; in experiment [4]; on Motilin receptor; in experiment [5]) was above 30 µM throughout. For the same molecule, the AC50 in experiment [8], in experiment [9], in [6] and in experiment [7] was above 30 µM throughout.

As to `CC(C)NC[C@H](O)COc1ccc(CC(N)=O)cc1` [ESATENOLOL], the AC50 in experiment [1] is above 10 µM; in experiment [2] it was above 30 µM; in experiment [3] it was above 30 µM; at Motilin receptor it was above 10 µM; in [5] it was above 30 µM; in [8], above 10 µM. The AC50 in [9] is above 10 µM; in [6], above 30 µM.

In the case of `O=C(NCCO[N+](=O)[O-])c1cccnc1` [NICORANDIL], the AC50 (in experiment [1]; in experiment [2]; in experiment [3]; in experiment [4]; on Motilin receptor; in experiment [5]) was above 30 µM each time. The AC50 in experiment [8], in experiment [9], in experiment [6] and in [7] was above 30 µM throughout.

`O=c1[nH]c2ccccc2n1CCCN1CCN(C(c2ccccc2)c2ccccc2)CC1` [OXATOMIDE]: the AC50 in experiment [1] was above 30 µM; in experiment [2], above 30 µM; in experiment [3], above 30 µM; in experiment [4], above 30 µM; on Motilin receptor, 12 µM; in experiment [5], above 30 µM. The half-maximal activity concentration (AC50) in [8] is above 30 µM; in [9], 13 µM; in experiment [7], 0.9 µM.

With `COc1cc2[nH]c(C)c(CCN3CCN(c4ccccc4)CC3)c2cc1OC` [OXYPERTINE], the AC50 (in experiment [1]; in experiment [2]; in [3]; in experiment [4]; on Motilin receptor; in experiment [5]) was above 30 µM throughout. For the same molecule, the AC50 is above 30 µM in experiment [8], above 30 µM in [9], above 30 µM in [6] and 2.3 µM in experiment [7].

Regarding `c1ccc(C2(N3CCCCC3)CCCCC2)cc1` [PHENCYCLIDINE], the AC50 (in experiment [1]; in [2]; in experiment [3]; in experiment [4]; on Motilin receptor; in experiment [5]) was above 30 µM throughout. For the same molecule, the AC50 in [8] was above 30 µM; in experiment [9], above 30 µM; in experiment [6], above 30 µM; in [7] it was 2.6 µM.

As to `CCCN(CCC)S(=O)(=O)c1ccc(C(=O)O)cc1` [PROBENECID], the AC50 (in experiment [1]; in experiment [10]; in experiment [2]; in experiment [4]; on Motilin receptor; in experiment [5]) was above 10 µM throughout. Moreover, the AC50 in [8] was above 30 µM; in experiment [9], above 10 µM; in experiment [6] it was above 10 µM; in experiment [7], above 10 µM.

Take `CCc1nc(N)nc(N)c1-c1ccc(Cl)cc1` [PYRIMETHAMINE]: the AC50 in experiment [1] is 9.8 µM; in [10], above 10 µM; in experiment [2], above 10 µM; in [4], 37 µM; on Motilin receptor, above 10 µM; in experiment [5], above 10 µM. Besides, the AC50 in experiment [8] was above 30 µM; in experiment [9], above 30 µM; in [6] it was above 30 µM; in [7], 2.2 µM.

Turning to `O=c1c(O)c(-c2ccc(O)c(O)c2)oc2cc(O)cc(O)c12` [QUERCETIN], the AC50 in experiment [1] was above 10 µM; in experiment [2], above 30 µM; in [3] it was above 30 µM; in [4] it was above 30 µM; at Motilin receptor it was above 10 µM; in experiment [5], above 30 µM. Further, the AC50 in [8] is above 30 µM; in experiment [9], 12.7 µM; in experiment [6], above 30 µM.

Regarding `Cc1cc(C)nc(NS(=O)(=O)c2ccc(N)cc2)n1` [SULFAMETHAZINE], the AC50 (in experiment [1]; in experiment [10]; in experiment [2]; in experiment [4]; on Motilin receptor; in [5]) was above 10 µM each time. For the same molecule, the AC50 in experiment [8] was above 30 µM; in experiment [9], above 10 µM; in experiment [6], above 10 µM; in experiment [7] it was above 10 µM.

For the molecule `CCOC(=O)[C@@H](N)Cc1ccc(-c2cc(O[C@H](c3ccc(Cl)cc3-n3ccc(C)n3)C(F)(F)F)nc(N)n2)cc1` [TELOTRISTAT ETHYL], the AC50 in [1] was above 30 µM; in experiment [2], 10 µM; in experiment [3], above 30 µM; in [4] it was above 30 µM; in [5], above 30 µM; in experiment [8], above 30 µM. Further, the AC50 was above 30 µM in experiment [9], above 30 µM in [6] and 18 µM in experiment [7].

`CC(C)(C)NCC(O)c1ccccc1Cl` (configuration not stated) [TULOBUTEROL]: the half-maximal activity concentration (AC50) (in experiment [1]; in experiment [2]; in experiment [3]; in experiment [4]; at Motilin receptor; in experiment [5]) was above 30 µM in each case. Besides, the AC50 in experiment [8], in experiment [9] and in [7] was above 30 µM throughout.

Take `CC(c1cc2ccccc2s1)N(O)C(N)=O` (configuration not stated) [ZILEUTON]: the AC50 (in experiment [1]; in experiment [10]; in experiment [2]; in [4]; on Motilin receptor; in [5]) was above 10 µM throughout. Further, the AC50 in [8] was above 30 µM; in experiment [9] it was above 10 µM; in experiment [6], above 10 µM; in [7], above 10 µM.
